Reference: article PMC12488667, “Orodispersible films containing chestnut shell phenolics for buccal delivery: a preclinical approach for oral mucositis prevention” (Frontiers in Medical Technology, 2025)
Values joined by “and” are separate entries in the source; they are usually repeats but may differ in a detail not shown here. Equal values may be shown once. Marks after values point to notes of the source that are not given here.

Experiments:
[1] = Ex vivo permeation, Franz cells; type: in vitro ADME, porcine
Method: Porcine buccal mucosa was used to evaluate the buccal permeation of the phenolic compounds in the extract and the CS-loaded OFs (n = 9). The porcine buccal mucosa was purchased in a local butcher shop, not requiring ethical approval. A Franz cell assembly (9 mm clear jacketed Franz cell with a flat ground joint, 5 ml receptor volume, and permeation area of 0.785 cm^2; PermeGear, Inc., USA) was used. This experiment followed the methodology described by Rodrigues et al. ([32]). In the Franz apparatus, the porcine buccal mucosa was positioned with the cheek side facing the donor chamber, which contained 500 µl (1,000 μg/ml) of the CS extract or the CS-loaded OFs (two square films (2 × 2 cm) with […] of thickness were dissolved in 4 ml of artificial saliva; donor concentration was normalized to ensure equivalence between the extract solution and the film formulation). The receptor chamber was filled with 5 ml PBS, maintained at 37°C, and stirred continuously at 150 rpm. The volume was maintained through the experiments.
(§1) The identification and quantification of the phenolic compounds present in the extract and the OFs, as well as the compounds that permeated from the OFs through in vitro and ex vivo assays, were conducted using an LC-ESI-LTQ-Orbitrap-HRMS equipment with an Accela chromatograph (Thermo Scientific, Hemel Hempstead, UK), a photodiode array detector, a quaternary pump, and a temperature-controlled autosampler coupled to a high-resolution LTQ Orbitrap Velos mass spectrometer (Thermo Scientific, Hemel Hempstead, UK) with an ESI source in negative mode ([33], [34]). The system was controlled using the Xcalibur v3.0 software (ThermoFisher Scientific, Hemel Hempstead, UK). Elution was performed on an Acquity™ UPLC® BEH C18 Column (2.1 × 100 mm, i.d., 1.7 µm particle size, Waters Corporation, Wexford, Ireland) maintained at 30°C.
(§2) Gradient elution was performed with water (A) and acetonitrile (B), both with 0.1% formic acid, with a flow rate and injection volume of 450 µl/min and 5 µl, respectively. The solvent gradient (v/v) of B [t (min), %B] was set as follows: (0, 0), (2, 0), (4, 30), (8, 100), (10, 100), (11, 0), and (14, 0). The samples were analyzed in the full scan mode at a resolving power of 30,000 and m/z 600. Data-dependent MS/MS events were acquired at a resolution of 15,000. Most intense ions were detected via the FTMS mode-triggered data-dependent acquisition mode. Ions that were not sufficiently intense for a data-dependent scan were explored in MSn mode. Precursors were fragmented by collision-induced dissociation using a C-trap with a normalized collision energy (35 V) and an activation time of 10 ms. […] Compounds whose theoretical [M–H]^− values exceeded the MS¹ acquisition range (m/z 100–600) were annotated based on characteristic MSⁿ fragment ions detected within the scan window.
Quantitative analysis was performed by using a validated chromatographic method ([38]).

TR146 cells = experiment: In vitro permeation, buccal model; type: in vitro ADME, human
Method: The in vitro permeability of the bioactive compounds present in OFs (n = 9) was determined using a co-culture model composed of TR146 ([31]). The extract and the CS-loaded OFs were added to the apical side of the model as a stock solution. […] The Transepithelial Electrical Resistance (TEER) of the model was evaluated before, during, and at the end of the permeability assay using an EVOM Epithelial Volthometer equipped with a chopstick electrode (World Precision Instruments, Sarasota, FL, USA).
as §1, §2

With O=C(O)CCCCC(=O)O [Adipic acid] as the compound, how does the “Quantification of permeated compounds” value ([1]; CS extract) read?
Its value is 93.48 ± 2.39^b mg/ml.

And the “Quantification of permeated compounds” value ([1]; CS-loaded OFs)?
Its value is 11.84 ± 2.11^a mg/g film.

And the “Permeation (%)” value ([1]; from CS extract, 15 min)?
Its value is 11.41 ± 0.03^a %.

And the “Permeation (%)” value ([1]; from CS extract, 30 min)?
The value was 9.47 ± 0.07^a %.

And the “Permeation (%)” value ([1]; from CS-loaded OFs, 15 min)?
Its value is 98.93 ± 2.05^b %.

What about the “Permeation (%)” value ([1]; from CS-loaded OFs, 30 min) of the same compound?
The value was 97.59 ± 2.36^b %.

What does the source list for O=c1oc2c(O)c(O)cc3c(=O)oc4c(O)c(O)cc1c4c23 [Ellagic acid]?
Quantification of permeated compounds ([1]; CS extract): 7.15 ± 2.50^b mg/ml; Quantification of permeated compounds ([1]; CS-loaded OFs): 1.27 ± 0.05^a mg/g film; Permeation (%) ([1]; from CS extract, 15 min): 10.61 ± 0.08^a %; Permeation (%) ([1]; from CS extract, 30 min): 6.26% and 6.26 ± 0.75^a %; Permeation (%) ([1]; from CS-loaded OFs, 15 min): 35.46 ± 0.32^b %; Permeation (%) ([1]; from CS-loaded OFs, 30 min): 60.75% and 60.75 ± 1.62^c %

With Oc1cc(O)c2c(c1)O[C@H](c1ccc(O)c(O)c1)[C@H](O)C2 [Epicatechin] as the compound, how does the “Quantification of permeated compounds” value (TR146 cells; CS extract) read?
The value was 0.41 ± 0.03^a mg/ml.

And the “Quantification of permeated compounds” value (TR146 cells; CS-loaded OFs)?
The value was 0.36 ± 0.02^a mg/g film.

What about the “Permeation (%)” value (TR146 cells; from CS extract, 15 min) of the same compound?
Its value is 97.57 ± 1.07^a %.

What about the “Permeation (%)” value (TR146 cells; from CS extract, 30 min) of the same compound?
Its value is 96.86 ± 2.25^a %.

And the “Permeation (%)” value (TR146 cells; from CS extract, 45 min)?
The value was 97.35 ± 1.74^a %.

What about the “Permeation (%)” value (TR146 cells; from CS extract, 60 min) of the same compound?
The value was 98.05 ± 3.81^a %.

What about the “Permeation (%)” value (TR146 cells; from CS extract, 90 min) of the same compound?
The value was 97.75 ± 5.73^a %.

What about the “Permeation (%)” value (TR146 cells; from CS extract, 120 min) of the same compound?
The value was 97.73 ± 6.01^a %.

What about the “Permeation (%)” value (TR146 cells; from CS extract, 180 min) of the same compound?
The value was 97.36 ± 2.57^a %.

What about the “Permeation (%)” value (TR146 cells; from CS extract, 240 min) of the same compound?
Its value is 96.86 ± 1.86^a %.

What about the “Permeation (%)” value (TR146 cells; from CS extract, 240 min, listed as epicatechin) of the same compound?
The value was 96.86%.

Which “Quantification of permeated compounds” value (TR146 cells; CS extract) does the source give for COc1cc(-c2oc3cc(O)cc(O)c3c(=O)c2O)ccc1O [Isorhamnetin] here?
Its value is 0.38 ± 0.04^a mg/ml.

What about the “Quantification of permeated compounds” value (TR146 cells; CS-loaded OFs) of the same compound?
Its value is 0.38 ± 0.01^a mg/g film.

What about the “Permeation (%)” value (TR146 cells; from CS extract, 15 min) of the same compound?
Its value is 99.26 ± 2.34^a %.

And the “Permeation (%)” value (TR146 cells; from CS extract, 30 min)?
Its value is 99.73 ± 1.83^a %.

And the “Permeation (%)” value (TR146 cells; from CS extract, 45 min)?
The value was 98.36 ± 3.74^a %.

What about the “Permeation (%)” value (TR146 cells; from CS extract, 60 min) of the same compound?
Its value is 99.10 ± 2.96^a %.

What about the “Permeation (%)” value (TR146 cells; from CS extract, 90 min) of the same compound?
The value was 99.00 ± 4.70^a %.

What about the “Permeation (%)” value (TR146 cells; from CS extract, 120 min) of the same compound?
The value was 98.36 ± 1.07^a %.

What about the “Permeation (%)” value (TR146 cells; from CS extract, 180 min) of the same compound?
The value was 99.08 ± 2.69^a %.

What about the “Permeation (%)” value (TR146 cells; from CS extract, 240 min) of the same compound?
Its value is 98.36 ± 1.91^a %.

And the “Permeation (%)” value (TR146 cells; from CS extract, 240 min, listed as isorhamnetin)?
The value was 98.36%.

And the “Permeation (%)” value (TR146 cells; from CS-loaded OFs, 15 min)?
Its value is 105.62 ± 3.71^a %.

What about the “Permeation (%)” value (TR146 cells; from CS-loaded OFs, 30 min) of the same compound?
The value was 105.51 ± 3.25^a %.

And the “Permeation (%)” value (TR146 cells; from CS-loaded OFs, 45 min)?
Its value is 105.05 ± 2.24^a %.

What about the “Permeation (%)” value (TR146 cells; from CS-loaded OFs, 60 min) of the same compound?
Its value is 101.34 ± 2.95^a %.

And the “Permeation (%)” value (TR146 cells; from CS-loaded OFs, 90 min)?
The value was 98.29 ± 2.14^a %.

What about the “Permeation (%)” value (TR146 cells; from CS-loaded OFs, 120 min) of the same compound?
The value was 99.38 ± 1.47^a %.

What about the “Permeation (%)” value (TR146 cells; from CS-loaded OFs, 180 min) of the same compound?
Its value is 98.29 ± 1.94^a %.

And the “Permeation (%)” value (TR146 cells; from CS-loaded OFs, 240 min)?
Its value is 100.20 ± 3.56^a %.

And the “Permeation (%)” value (TR146 cells; from CS-loaded OFs, 240 min, listed as isorhamnetin)?
The value was 100.20%.

What does the source list for N[C@@H](Cc1ccccc1)C(=O)O [L-Phenylalanine]?
Quantification of permeated compounds ([1]; CS extract): 5.52 ± 0.24^b mg/ml; Quantification of permeated compounds ([1]; CS-loaded OFs): 0.42 ± 0.01^a mg/g film; Permeation (%) ([1]; from CS extract, 15 min): 8.67 ± 0.03^a %; Permeation (%) ([1]; from CS extract, 30 min): 8.57 ± 1.47^a %

Which “Quantification of permeated compounds” value ([1]; CS extract) does the source give for N[C@@H](Cc1c[nH]c2ccccc12)C(=O)O [L-Tryptophan] here?
Its value is 4.18 ± 0.26^a mg/ml.

And the “Quantification of permeated compounds” value ([1]; CS-loaded OFs)?
Its value is 1.18 ± 0.09^a mg/g film.

And the “Permeation (%)” value ([1]; from CS extract, 15 min)?
The value was 37.21 ± 0.01^a %.

What about the “Permeation (%)” value ([1]; from CS extract, 30 min) of the same compound?
Its value is 27.24 ± 0.23^a %.

What does the source list for COC(=O)c1cc(O)c(O)c(O)c1 [Methyl gallate]?
Quantification of permeated compounds (TR146 cells; CS extract): 0.37 ± 0.01^a mg/ml; Quantification of permeated compounds (TR146 cells; CS-loaded OFs): 0.37 ± 0.03^a mg/g film; Permeation (%) (TR146 cells; from CS extract, 15 min): 37.24 ± 0.04^a %

Which “Quantification of permeated compounds” value (TR146 cells; CS extract) does the source give for O[C@H]1[C@H](O)[C@@H](O)[C@H](O)[C@@H](O)[C@H]1O [Myo-Inositol] here?
The value was 0.54 ± 0.01^a mg/ml.

And the “Quantification of permeated compounds” value (TR146 cells; CS-loaded OFs)?
Its value is 0.42 ± 0.01^a mg/g film.

And the “Permeation (%)” value (TR146 cells; from CS extract, 15 min)?
The value was 39.51 ± 0.87^a^,^b %.

And the “Permeation (%)” value (TR146 cells; from CS extract, 30 min)?
The value was 79.23 ± 1.43c %.

And the “Permeation (%)” value (TR146 cells; from CS extract, 45 min)?
Its value is 12.98 ± 0.01^a %.

And the “Permeation (%)” value (TR146 cells; from CS extract, 60 min)?
Its value is 33.80 ± 0.08^a^,^b %.

What about the “Permeation (%)” value (TR146 cells; from CS extract, 90 min) of the same compound?
The value was 30.46 ± 0.05^a^,^b %.

What about the “Permeation (%)” value (TR146 cells; from CS extract, 120 min) of the same compound?
The value was 41.34 ± 1.01^a^,^b %.

And the “Permeation (%)” value (TR146 cells; from CS extract, 180 min)?
The value was 25.02 ± 0.09^a^,^b %.

What about the “Permeation (%)” value (TR146 cells; from CS extract, 240 min) of the same compound?
The value was 56.50 ± 0.37^c %.
